Laboratory results published in patent US20200032269A1, “GENETICALLY MODIFIED CELL LINES FOR METABOLIC STUDIES” (Hennepin Healthcare Research Institute, priority 2017, published 2020).
Read-outs that look alike come from different tables or passages of the source.

How the values were obtained:
CYP3A5 = CYP3A5 (Homo sapiens, UniProt P20815); conditions: FIG. 16 diagram; cited from earlier work
CYP3A4 = CYP3A4 (Homo sapiens, UniProt P08684); conditions: FIG. 16 diagram; cited from earlier work
[1] = test system: HuH-7 CYP3A5 *3/*3 cell line; test: Midazolam and tacrolimus metabolism assay, parental HuH-7 cells
Experimental: (§1) To further characterize the cell lines, metabolism assays were performed to determine the effect of each genetic variant on metabolism. FIG. 11 illustrates a generalized representative assay. In this exemplary assay, a cell line is plated on a collagen I-coated plate (or in a well of a multi-well plate, etc.), layered with an extracellular-matrix-like hydrogel (e.g., […], Corning Life Sciences, Tewksbury, Mass.), induced with a suitable inducer (e.g., rifampin and phenytoin), then treated with the substrate MDZ. The MDZ substrate is converted by the metabolic processes of the cell line to 1-OH MDZ or 4-OH MDZ, which can be measured using, for example high performance liquid chromatography (HPLC). The assay can be altered depending on the substrate, cell line, genetic variant, and any other experimental conditions.
(§2) In this metabolism assay, all three exemplary cell lines and HuH-7 parental cell line were grown to confluency and then layered with […] (Corning Life Sciences, Tewksbury, Mass.). The cells were then induced with rifampicin and phenytoin for three days and treated with substrate Tac overnight. Cell culture media were collected after treatment and assayed for Tac disappearance using liquid chromatography-mass spectrometry.
(§3) HuH-7 and engineered cells were grown to confluence in 12 well BIOCOAT collagen I multi-well plates (Corning, Inc., Corning, N.Y.) for 3-4 weeks in DMEM. Cells were then overlaid with […] matrix (Corning, Inc., Corning, N.Y.) and then induced for four days by adding 100 μM phenytoin (USP) and 10 μM rifampicin to the cell culture, with media changed daily with inducers. On the fourth day, 500 μl of media was added to the cells with 100 μM phenytoin (USP) and 10 μM rifampicin with either equal volumes of methanol, as a negative control, or Midazolam (MDZ; Cerrilliant Corp., Round Rock, Tex.) diluted in methanol so that MDZ final concentration was 5 μM in cell culture media. Cells were incubated overnight, and media was collected and assayed for MDZ, 1-OH MDZ and 4-OH MDZ by high performance liquid chromatography.
(§4) To determine the metabolic function of the engineered cell lines, the cells were treated with MDZ at 1628 ng/mL (5 μM) in cell culture overnight. The following day, the cell culture media was harvested and analyzed by liquid chromatography/mass spectrometry (LC/MS) at the University of Minnesota Department of Experimental and Clinical Pharmacology to quantify the concentrations of MDZ and the metabolites 1-hydroxy-midazolam (1-OH MDZ) and 4-hydroxy-midazolam (4-OH MDZ).
(§5) Likewise, Tac was added to cells and analyzed by LC/MS at the University of Minnesota Department of Experimental and Clinical Pharmacology. […]

[2] = test system: CYP3A5 *1/*1 dd cell line; test: Midazolam and tacrolimus metabolism assay, CYP3A5 *1/*1 dd cells
Experimental: as §1, §2
HuH-7 and engineered cells were grown to confluence in 12 well BIOCOAT collagen I multi-well plates (Corning, Inc., Corning, N.Y.) for 3-4 weeks in DMEM. […]
as §4, §5

[3] = test system: CYP3A5 *1/*3 pm cell line; test: Midazolam and tacrolimus metabolism assay, CYP3A5 *1/*3 pm cells
Experimental: as §1, §2, §3, §4, §5

[4] = test system: CYP3A5 *1/*3 sd cell line; test: Midazolam and tacrolimus metabolism assay, CYP3A5 *1/*3 sd cells
Experimental: as §1, §2, §3, §4, §5

[5] = kidney transplant patients, cited from earlier work

Sequence of CYP3A5 (P20815 whole entry): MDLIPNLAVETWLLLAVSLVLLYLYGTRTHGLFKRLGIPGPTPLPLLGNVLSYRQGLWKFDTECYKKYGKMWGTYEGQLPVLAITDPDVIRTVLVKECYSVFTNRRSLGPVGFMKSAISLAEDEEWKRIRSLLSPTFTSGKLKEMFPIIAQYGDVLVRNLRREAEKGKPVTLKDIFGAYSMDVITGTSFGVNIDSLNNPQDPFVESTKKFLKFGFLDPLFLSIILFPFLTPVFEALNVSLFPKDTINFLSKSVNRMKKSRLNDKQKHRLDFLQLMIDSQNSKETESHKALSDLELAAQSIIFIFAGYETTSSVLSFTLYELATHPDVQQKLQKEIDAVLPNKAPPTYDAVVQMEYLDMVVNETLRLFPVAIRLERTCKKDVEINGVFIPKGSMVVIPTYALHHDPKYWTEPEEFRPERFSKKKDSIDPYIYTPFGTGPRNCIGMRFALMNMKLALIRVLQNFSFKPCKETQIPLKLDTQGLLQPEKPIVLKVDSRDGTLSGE
Sequence of CYP3A4 (P08684 whole entry): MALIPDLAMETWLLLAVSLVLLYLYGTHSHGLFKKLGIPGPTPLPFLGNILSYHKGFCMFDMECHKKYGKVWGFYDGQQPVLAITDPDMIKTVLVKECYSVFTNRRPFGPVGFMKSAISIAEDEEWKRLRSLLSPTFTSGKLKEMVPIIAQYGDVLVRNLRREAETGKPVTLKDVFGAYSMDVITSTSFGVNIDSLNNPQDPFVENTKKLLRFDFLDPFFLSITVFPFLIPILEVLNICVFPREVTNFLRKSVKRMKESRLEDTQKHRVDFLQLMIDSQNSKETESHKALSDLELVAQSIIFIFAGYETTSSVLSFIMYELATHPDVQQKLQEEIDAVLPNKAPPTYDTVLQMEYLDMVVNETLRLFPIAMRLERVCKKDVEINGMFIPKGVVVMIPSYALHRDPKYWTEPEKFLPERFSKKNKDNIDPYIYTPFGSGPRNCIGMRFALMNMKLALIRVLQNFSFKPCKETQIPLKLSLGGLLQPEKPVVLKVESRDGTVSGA

SMILES: Cc1ccc(-c2c(-c3nn(C)c4ncnc(N5CC[C@H](N6CCCCC6)C5)c34)cnn2C)cc1 [CYP3CIDE]
- inhibitory function on CYP3A5 (CYP3A5): mild inhibitory effect
- inhibitory function on CYP3A4 (CYP3A4): strong inhibitor
- inhibition of 1-OH MDZ production ([1]; 50 μM CYP3CIDE, HuH-7 cells, MDZ substrate, FIG. 19): nearly completely inhibited
- inhibition of 4-OH MDZ production ([1]; 50 μM CYP3CIDE, HuH-7 cells, MDZ substrate, FIG. 20): inhibited

SMILES: Cc1ncc2n1-c1ccc(Cl)cc1C(c1ccccc1F)=NC2 [Midazolam, midazolam]
- MDZ disappearance ([2]; FIG. 13, five biological replicates): the most MDZ disappearance
- Midazolam (ng/mL) No CYP3CIDE ([2]; start 5 μM MDZ, overnight, no CYP3CIDE, mean ± SD of six): 724 ± 200 ng/mL
- Midazolam (ng/mL) With CYP3CIDE ([2]; start 5 μM MDZ, overnight, with 50 μM CYP3CIDE, mean ± SD of six): 1189 ± 90 ng/mL
- MDZ disappearance ([3]; CYP3A5 *1/*3 pm, FIG. 13, five biological replicates): more efficiently than the parental HuH-7 cell line
- Midazolam (ng/mL) No CYP3CIDE ([3]; CYP3A5 *1/*3 pm, start 5 μM MDZ, overnight, no CYP3CIDE, mean ± SD of six): 1130 ± 45 ng/mL
- Midazolam (ng/mL) With CYP3CIDE ([3]; CYP3A5 *1/*3 pm, start 5 μM MDZ, overnight, with 50 μM CYP3CIDE, mean ± SD of six): 1224 ± 18 ng/mL
- Midazolam (ng/mL) No CYP3CIDE ([1]; HuH-7 CYP3A5 *3/*3, start 5 μM (approximately 1629 ng/ml) MDZ, overnight, no CYP3CIDE, mean ± SD of six): 1458 ± 62 ng/mL
- Midazolam (ng/mL) With CYP3CIDE ([1]; HuH-7 CYP3A5 *3/*3, start 5 μM (approximately 1629 ng/ml) MDZ, overnight, with 50 μM CYP3CIDE, mean ± SD of six): 1534 ± 32 ng/mL
- MDZ disappearance ([4]; CYP3A5 *1/*3 sd, FIG. 13, five biological replicates): more efficiently than the parental HuH-7 cell line
- Midazolam (ng/mL) No CYP3CIDE ([4]; CYP3A5 *1/*3 sd, start 5 μM MDZ, overnight, no CYP3CIDE, mean ± SD of six): 971 ± 110 ng/mL
- Midazolam (ng/mL) With CYP3CIDE ([4]; CYP3A5 *1/*3 sd, start 5 μM MDZ, overnight, with 50 μM CYP3CIDE, mean ± SD of six): 1241 ± 64 ng/mL

SMILES: C=CC[C@@H]1/C=C(\C)C[C@H](C)C[C@H](OC)[C@H]2O[C@@](O)(C(=O)C(=O)N3CCCC[C@H]3C(=O)O[C@H](/C(C)=C/[C@@H]3CC[C@@H](O)[C@H](OC)C3)[C@H](C)[C@@H](O)CC1=O)[C@H](C)C[C@@H]2OC [Tac, tacrolimus]
- Tac disappearance ([3]; human, 13 ng/mL): more efficiently than the parental HuH-7 cell line
- Tac disappearance ([4]; human, 13 ng/mL): more efficiently than the parental HuH-7 cell line
- reduction in log-transformed dose-normalized troughs ([5]; one CYP3A5 *1 allele present): 36%
- reduction in log-transformed dose-normalized troughs ([5]; two CYP3A5 *1 alleles present): 59%
